Series [1] can be described thus: in vitro. To be noted: human, Caco-2, pH 7.4. Here is the method:
1) 50 μL and 25 mL of cell culture medium were added to each well of the Transwell insert and reservoir, respectively. And then the HTS transwell plates were incubated at 37° C., 5% CO2 for 1 hour before cell seeding.
2) Caco-2 cells were diluted to 6. 86×10^5 cells/mL with culture medium and 50 μL of cell suspension were dispensed into the filter well of the 96-well HTS Transwell plate. Cells were cultivated for 14-18 days in a cell culture incubator at 37° C., 5% CO2, 95% relative humidity. Cell culture medium was replaced every other day, beginning no later than 24 hours after initial plating.
10 mM stock solutions of test compounds were prepared in DMSO. The stock solutions of positive controls were prepared in DMSO at the concentration of 10 mM. Digoxin and propranolol were used as control compounds in this assay.
1) Medium was removed from the reservoir and each Transwell insert and replaced with prewarmed fresh culture medium.
2) Transepithelial electrical resistance (TEER) across the monolayer was measured using Millicell Epithelial Volt-Ohm measuring system (Millipore, USA).
The TEER value was calculated according to the following equation: TEER measurement (ohms) * Area of membrane (cm^2)=TEER value (ohm·cm^2) TEER value should be greater than 230 ohm·cm^2, which indicates the well-qualified Caco-2 monolayer.
1) The Caco-2 plate was removed from the incubator and washed twice with pre-warmed HMS (10 mM HEPES, pH 7.4), and then incubated at 37° C. for 30 minutes.
2) The stock solutions of control compounds and test compounds were diluted in DMSO to get 1 mM solutions and then diluted with HMS (10 mM HEPES, pH 7.4) get 5 μM working solutions. The final concentration of DMSO in the incubation system was 0.5%.
3) To determine the rate of drug transport in the apical to basolateral direction. 125 μL of 5 μM working solution of control compound and test compounds were added to the Transwell insert (apical compartment), and transfer 50 μL sample (D0 sample) immediately from the apical compartment to a new 96-well plate. Fill the wells in the receiver plate (basolateral compartment) with 235 μL of MSS (10 mM HEPES, pH 7.4).
4) To determine the rate of drug transport in the basolateral to apical direction. 285 μL of 5 μM working solution of control compound and test compounds were to the receiver plate wells (basolateral compartment), and transfer 50 μL sample (D0 sample) immediately from the basolateral compartment to a new 96-well plate. Fill the wells in the Transwell insert (apical compartment) with 75 μL of MSS (10 mM HEPES, pH 7.4). The assay was performed in duplicate.
5) The plates were incubated at 37° C. for 2 hours.
6) At the end of the incubation, 50 μL samples from donor sides (apical compartment for Ap→Bl flux, and basolateral compartment for Bl→Ap) and receiver sides (basolateral compartment for Ap→Bl flux, and apical compartment for Bl→Ap) were transferred to wells of a new 96-well plate, followed by the addition of 4 volume of cold methanol containing appropriate internal standards (IS). Samples were Vortexed for 5 minutes and then centrifuged at 3,220 g for 40 minutes. An aliquot of 100 μL of the supernatant was mixed with an appropriate volume of ultra-pure water before LC-MS/MS analysis.
7) To determine the Lucifer Yellow leakage after 2-hour transport period, stock solution of Lucifer yellow was prepared in water and diluted with HMS (10 mM HEPES, pH 7.4) to reach the final concentration of 100 μM. 100 μL of the Lucifer yellow solution was added to each Transwell insert (apical compartment), followed by filling the wells in the receiver plate (basolateral compartment) with 300 μL of HBSS (10 mM HEPES, pH 7.4). The plates were Incubated at 37° C. for 30 mins. 80 μL samples were removed directly from the apical and basolateral wells (using the basolateral access holes) and transferred to wells of new 96 wells plates.

Series [2] in a line: Assay of intrinsic clearance in liver microsomes (human). Format: in vitro ADME. To be noted: Human liver microsomes 0.5 mg/mL, 2 μM compound, 37° C.; for microsomal CLint at 2 μM: read-out: in vitro CLint (μL/min/mg protein); for half-life at 2 μM: read-out: in vitro t1/2. Here is the method:
(§1) 1. The master solution was prepared according to Table 11.
(§2) 2. Three separated experiments were performed as follows. a) With NADPH: 10 μL of 20 mg/mL liver microsomes and 40 μL of 10 mM NADPH were added to the incubations. The final concentrations of microsomes and NADPH were 0.5 mg/mL and 1 mM, respectively. b) Without NADPH: 10 μL of 20 mg/mL liver microsomes and 40 μL of ultra-pure H2O were added to the incubations. The final concentration of microsomes was 0.5 mg/mL. c) Heat-inactivated microsomes without NADPH: 10 μL of 20 mg/mL heat-inactivated liver microsomes and 40 μL of ultra-pure H2O were added to the incubations. The final concentration of microsomes was 0.5 mg/mL.
(§3) 3. The reaction was started with the addition of 4 μL of 200 μM test compound solution or control compound solution at the final concentration of 2 μM and carried out at 37° C.
(§4) 4. Aliquots of 50 μL were taken from the reaction solution at 0, 15, 30, 45 and 60 min. The reaction was stopped by the addition of 4 volumes of cold acetonitrile with IS (100 nM alprazolam, 200 nM labetalol, 200 nM caffeine and 2 μM ketoprofen). Samples were centrifuged at 3, 220 g for 40 minutes.
(§5) Peak areas were determined from extracted ion chromatograms. The slope value, k, was determined by linear regression of the natural logarithm of the remaining percentage of the parent drug vs. incubation time curve.
(§6) The in vitro half-life (in vitro t1/2) was determined from the slope value:
(§7) Conversion of the in vitro t1/2 (min) into the in vitro intrinsic clearance (in vitro CLint, in μL/min/mg protein) was done using the following equation (mean of duplicate determinations):
(§8) in vitro CLint=(0.693 * volume of incubation(μl))/(in vitro t1/2 * amount of proteins(mg))

Series [3] in a line: Assay of intrinsic clearance in liver microsomes (mouse). To be noted: Mouse liver microsomes 0.5 mg/mL, 2 μM compound, 37° C.; for microsomal CLint at 2 μM: read-out: in vitro CLint (μL/min/mg protein); for half-life at 2 μM: read-out: in vitro t1/2. It is filed as in vitro ADME. Here is the method:
as §1, §2, §3, §4, §5, §6, §7, §8
Background: Liver microsomes are vesicles of endoplasmic reticulum, rich in cytochrome P450 enzymes.

Series [4] addresses wild type CK1δ (Homo sapiens, UniProt P48730). Nature of the series: CK1δ kinase assay (Kinase-Glo). Format: biochemical. To be noted: 10 μM ATP, 2 nM wild type CK1δ, 85 min at 25° C.; read-out: CK1δ inhibition (IC50). Here is the method:
The CK1δ kinase assay was performed with a buffer (40 μL, pH 7.5) containing 50 mM Tris, 10 mM MgCl2, 1 mM dithiothreitol, 100 μg/mL BSA with 10 μM ATP, 2 nM wild type CK1δ, and 42 μM peptide substrate PLSRTLpSVASLPGL (Flotow et al., 1990) in the presence of 1 μL of a CK1δ inhibitor (e.g., a compound of the present application) or 4% DMSO (e.g., as control). The reaction mixture was incubated for 85 min at 25° C.; detection was carried out as described for the Kinase-Glo Assay (Promega). Luminescent output was measured on the Perkin Elmer Envision plate reader (PerkinElmer, Waltham, Mass.).
A general note: Kinase-Glo reads ATP consumption through a luciferase reaction.

Series [5] concerns MDA-MB-231 cells. Nature of the series: Cell proliferation assay (crystal violet). It is filed as cell-based. To be noted: various concentrations, 72 hours. As to the method: MDA-MB-231 cells treated with a compound of the present application (e.g., compound 1-1, 2-5, 1-14 and 3-8, respectively) were seeded at a density of 5×10^4cells/well in 12-well plate and incubated at 37° C. with 5% CO2. After 72 hours of culturing, the cells were washed with PBS, fixed in 4% formaldehyde for 15 minutes and stained with 0.1% crystal violet for 20 minutes. Cells were washed with water and the staining was extracted with 10% acetic acid for 20 minutes and absorbance was measured at 590 nm. The experiments were performed in triplicates.

Series [6] has as its system MDA-MB-231 cells (breast cancer cells). Nature of the series: Transwell cell migration assay. It is filed as cell-based. To be noted: MDA-MB-231, 24 h; for relative migration (%) of cells: FIG. 61; for migrated cells: FIGS. 62-67. Here is the method: MDA-MB-231 cells (breast cancer cells) were starved in 0.5% serum-DMEM for 8 hours. For the migration assay, a total of 5×10^4cells were suspended in 500 μL of serum-free DMEM medium and seeded into the upper chamber of a […] pore size insert. Then, 750 μL of DMEM (containing 10% FBS) with or without the compound of the present application was added to the lower compartment. After incubation at 37° C. for 24 h, migrated cells were washed with PBS, fixed in 4% PFA and stained for 30 min in crystal violet solution (0.1% crystal violet). […] Each insert was photographed in 3 random fields at a magnification of 40×.

wild type CK1δ, sequence (P48730 whole entry): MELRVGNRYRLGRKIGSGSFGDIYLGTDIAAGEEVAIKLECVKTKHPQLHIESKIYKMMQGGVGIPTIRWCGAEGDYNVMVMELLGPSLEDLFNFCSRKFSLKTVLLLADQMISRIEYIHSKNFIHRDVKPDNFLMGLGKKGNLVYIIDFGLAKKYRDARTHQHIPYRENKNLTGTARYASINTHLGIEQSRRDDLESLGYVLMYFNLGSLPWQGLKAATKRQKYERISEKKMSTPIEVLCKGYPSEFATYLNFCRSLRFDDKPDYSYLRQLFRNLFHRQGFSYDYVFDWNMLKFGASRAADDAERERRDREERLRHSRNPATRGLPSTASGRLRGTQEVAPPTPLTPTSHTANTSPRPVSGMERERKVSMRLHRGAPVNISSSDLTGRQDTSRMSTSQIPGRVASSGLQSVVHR

One may read the Papp A→B as how fast a substance crosses the layer from the apical side. Lower therefore signals poor permeation. Usually Papp B→A stands for how fast a substance crosses the layer from the basolateral side. The term efflux ratio denotes a quotient of directional permeabilities that is used to spot active efflux. For orientation: IC50 means the concentration that inhibits the measured activity by half. As to `CN1CCn2nc(-c3ccc(F)cc3)c(-c3ccnc(N)c3)c2C1` [Compound 1-59, 4-(2-(4-fluorophenyl)-5-methyl-4,5,6,7-tetrahydropyrazolo[1,5-a]pyrazin-3-yl)pyridin-2-amine], in series [1], the Papp A→B at 2 h, 5 μM worked out at 22.8 ×10⁻⁶ cm/s; the Papp B→A at 2 h, 5 μM worked out at 23.9 ×10⁻⁶ cm/s; the efflux ratio at 2 h, 5 μM worked out at 1.05. Moreover, in series [2], the microsomal CLint at 2 μM worked out at 9.7 µL/min/mg and the half-life at 2 μM is 143 min. Besides, in series [3], the microsomal CLint at 2 μM was 22.2 µL/min/mg and the half-life at 2 μM is 62.3 min. For the same compound, in series [4], the IC50 was found to be 39.7 nM.
For the compound `COc1ccc(Cn2nnc(-c3ccc(F)cc3)c2-c2ccncc2)cc1` [Compound 3-8, 4-(4-(4-fluorophenyl)-1-(4-methoxybenzyl)-1H-1,2,3-triazol-5-yl)pyridine], in series [5], the “relative proliferation (%) of cells” value is “affected in a concentration dependent manner”. Further, in series [4], the concentration for half-maximal inhibition (IC50) was 97400 nM.
For `Nc1nccc(-c2c(-c3ccc(F)cc3)nc3cnccn23)n1` [Compound 1-1, 4-(2-(4-fluorophenyl)imidazo[1,2-a]pyrazin-3-yl)pyrimidin-2-amine], in series [6], the “relative migration (%) of cells” value is “reduced” and the migrated cells entry is given as “suppressed the migration”. For the same compound, the “relative proliferation (%) of cells” value in series [5] is “affected in a concentration dependent manner”.
`Nc1cc(-c2c(-c3ccc(F)cc3)nn3c2COCC3)ccn1` [Compound 1-49, 4-(2-(4-fluorophenyl)-6,7-dihydro-4H-pyrazolo[5,1-c][1,4]oxazin-3-yl)pyridin-2-amine]: in series [2], the microsomal CLint at 2 μM was found to be 49.5 µL/min/mg and the half-life at 2 μM was found to be 28 min. In series [3], the microsomal CLint at 2 μM stood at 104 µL/min/mg and the half-life at 2 μM was found to be 13.3 min. Further, the IC50 in series [4] is 320 nM.
Take `Nc1cc(-c2c(-c3ccc(F)cc3)nn3c2CCC3)ccn1` [Compound 1-57, 4-(2-(4-fluorophenyl)-5,6-dihydro-4H-pyrrolo[1,2-b]pyrazol-3-yl)pyridin-2-amine]: in series [1], the Papp A→B at 2 h, 5 μM is 19.2 ×10⁻⁶ cm/s; the Papp B→A at 2 h, 5 μM was 17.3 ×10⁻⁶ cm/s; the efflux ratio at 2 h, 5 μM was 0.9. For the same compound, in series [2], the microsomal CLint at 2 μM was 104 µL/min/mg and the half-life at 2 μM was 13.4 min. For the same compound, in series [3], the microsomal CLint at 2 μM is 285 µL/min/mg and the half-life at 2 μM stood at 4.86 min. In series [4], the IC50 worked out at 131 nM.
Regarding `Fc1ccc(-c2nc3c(n2-c2ccncc2)CCCC3)cc1` [Compound 2-5, 2-(4-fluorophenyl)-1-(pyridin-4-yl)-4,5,6,7-tetrahydro-1H-benzo[d]imidazole], in series [6], the “relative migration (%) of cells” value is on record as “reduced” and the migrated cells result is reported as “suppressed the migration”. Further, the “relative proliferation (%) of cells” value in series [5] is on record as “affected in a concentration dependent manner”. Besides, the IC50 in series [4] came out at 408 nM.
Turning to `Cn1cc(-c2ccnc3[nH]ncc23)c(-c2ccc(F)cc2)c1C#N` [Compound 5-2, 3-(4-fluorophenyl)-1-methyl-4-(1H-pyrazolo[3,4-b]pyridin-4-yl)-1H-pyrrole-2-carbonitrile], in series [2], the microsomal CLint at 2 μM was found to be 7.93 µL/min/mg and the half-life at 2 μM turned out to be 175 min. Further, in series [3], the microsomal CLint at 2 μM is 25.2 µL/min/mg and the half-life at 2 μM worked out at 55 min. For the same compound, the IC50 in series [4] was found to be 168 nM.
For `C[C@@H]1Cn2nc(-c3ccc(F)cc3)c(-c3ccncc3)c2CO1` [Compound 1-46, (R)-2-(4-fluorophenyl)-6-methyl-3-(pyridin-4-yl)-6,7-dihydro-4H-pyrazolo[5,1-c][1,4]oxazine], in series [2], the microsomal CLint at 2 μM was 60.1 µL/min/mg and the half-life at 2 μM turned out to be 23.1 min. For the same compound, in series [3], the microsomal CLint at 2 μM came to 44.9 µL/min/mg and the half-life at 2 μM came to 30.9 min. Besides, the IC50 in series [4] is 273 nM.
Take `CC(=O)N1CCn2nc(-c3ccc(F)cc3)c(-c3ccncc3)c2C1` [Compound 1-14, 1-(2-(4-fluorophenyl)-3-(pyridin-4-yl)-6,7-dihydropyrazolo[1,5-a]pyrazin-5(4H)-yl)ethan-1-one]: in series [6], the “relative migration (%) of cells” value is given as “reduced” and the migrated cells entry is reported as “suppressed the migration”. In addition, the “relative proliferation (%) of cells” value in series [5] is listed as “affected in a concentration dependent manner”. Further, in series [4], the IC50 came to 61.5 nM.

These data come from patent publication US20230192699A1, “COMPOUNDS AS CASEIN KINASE INHIBITORS” (GRITSCIENCE BIOPHARMACEUTICALS CO., LTD., priority 2020, published 2023).
